Like-named read-outs stand apart in the source and are kept apart here.
What was measured:
hT2R4 = hT2R4 (Homo sapiens (Human), UniProt Q9NYW5); test: hT2R panel inhibition, transient HEK293 G16g44, agonist Chloroquine pH6.5 5 mM; type: cell-based; conditions: HEK293, compound at 25 μM; receptor activated to EC80 with the corresponding agonist; class symbols; read-out: screening result against bitter receptor 4
Procedure: Specifically, in order to evaluate the inhibitory selectivity of the Compound C compound, this compound was tested against 22 human T2Rs which were deorphaned by Senomyx. These receptors and the bitter ligands that activate these human T2Rs are reported in earlier patent applications which are incorporated by reference herein. These 22 human T2Rs are hT2R1, 3, 4, 5, 7, 8, 9, 10, 13, 14, 16, 44, 51, 54, 55, 61, 63, 64, 65, 67, 71 and 75. The amino acid and nucleic acid sequences of all of these T2Rs may be found in these earlier patent applications. These human T2Rs were each individually transiently transfected into HEK293 cells that stably express the promiscuous G protein G16g44 and functional assays were effected using these receptors as disclosed in these same patent applications. […] The ligands were used at EC80 concentration levels. The list of bitter ligands utilized and the tested ligand concentrations are contained in Table 5 of this example.
Relating to the foregoing, FIG. 5 contains experimental results wherein Compound C was tested with different agonist compounds. The inhibition activity is represented by the reduction of receptor activity in the presence of Compound C. […] These 13 hT2Rs are hT2R3, 7, 10, 14, 16, 44, 51, 55, 61, 63, 64, 65, and 71.

hT2R63 = test: hT2R panel inhibition, transient HEK293 G16g44, agonist Caffeine 1 mM or Andrographolide 100 μM; type: cell-based, human; conditions: compound at 25 μM; receptor activated to EC80 with the corresponding agonist
In short: (§1)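 Transfect one hT2R per well set; stimulate with agonist at EC80; add test compound; record reduction of functional response as inhibition.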

hT2R16 = hT2R16 (Homo sapiens (Human), UniProt Q9NYV7); test: hT2R panel inhibition, transient HEK293 G16g44, agonist Salicin 1 mM; type: cell-based; conditions: HEK293, compound at 25 μM; receptor activated to EC80 with the corresponding agonist; read-out: screening result against bitter receptor 16
In short: as §1

hT2R14 [1] = target: T1, hT2R14 (Homo sapiens (Human), UniProt Q9NYV8); test: hT2R14 antagonist high-throughput FLIPR assay, stable cell line with G16g44, agonist aristolochic acid; type: cell-based
In short: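 HEK293 cells stably expressing hT2R14 with chimeric G16g44 were stimulated with aristolochic acid (3 μM), giving 70-80% of maximal receptor activity. Test compounds were added together with the agonist, and antagonism was read as fluorescent calcium signal on FLIPR.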

hT2R75 = hT2R75 (Homo sapiens (Human), UniProt P59540); test: hT2R panel inhibition, transient HEK293 G16g44, agonist Strychnine 1 μM; type: cell-based; conditions: HEK293, read-out: screening result against bitter receptor 75, compound at 25 μM; receptor activated to EC80 with the corresponding agonist
hT2R14 [2] = target: T1, hT2R14; test: hT2R panel inhibition, transient HEK293 G16g44, agonist Aristolochic Acid 2 μM; type: cell-based; conditions: HEK293, compound at 25 μM; receptor activated to EC80 with the corresponding agonist; read-out: screening result against bitter receptor 14
In short: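 Each hT2R was transiently transfected into HEK293 cells stably expressing G16g44 and assayed functionally for inhibition of agonist response. Agonists were applied at EC80: andrographolide at 0.5 mM for hT2R8 and aristolochic acid at 2 μM for hT2R14.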

hT2R44 = test: hT2R panel inhibition, transient HEK293 G16g44, agonist Denatonium 0.5 μM; type: cell-based, human; conditions: compound at 25 μM; receptor activated to EC80 with the corresponding agonist
In short: as §1

hT2R10 = hT2R10 (Homo sapiens (Human), UniProt Q9NYW0); test: hT2R panel inhibition, transient HEK293 G16g44, agonist Strychnine 50 μM; type: cell-based; conditions: HEK293, read-out: screening result against bitter receptor 10, compound at 25 μM; receptor activated to EC80 with the corresponding agonist
hT2R64 = hT2R64 (Homo sapiens (Human), UniProt P59538); test: hT2R panel inhibition, transient HEK293 G16g44, agonist Aristolochic Acid 1 μM; type: cell-based; conditions: HEK293, compound at 25 μM; receptor activated to EC80 with the corresponding agonist; read-out: screening result against bitter receptor 64
In short: as §1

hT2R3 = hT2R3 (Homo sapiens (Human), UniProt Q9NYW6); test: hT2R panel inhibition, transient HEK293 G16g44, agonist Chloroquine pH6.5 50 μM; type: cell-based; conditions: HEK293, compound at 25 μM; receptor activated to EC80 with the corresponding agonist; read-out: screening result against bitter receptor 3
In short: as §1

hT2R65 = test: hT2R panel inhibition, transient HEK293 G16g44, agonist Oleuropein 1 mM; type: cell-based, human; conditions: compound at 25 μM; receptor activated to EC80 with the corresponding agonist
In short: as §1

hT2R51 = hT2R51 (Homo sapiens (Human), UniProt P59533); test: hT2R panel inhibition, transient HEK293 G16g44, agonist Prop 2.5 μM; type: cell-based; conditions: HEK293, compound at 25 μM; receptor activated to EC80 with the corresponding agonist; read-out: screening result against bitter receptor 51
In short: as §1

hT2R54 = test: hT2R panel inhibition, transient HEK293 G16g44, agonist Ranitidine 5 mM; type: cell-based, human; conditions: compound at 25 μM; receptor activated to EC80 with the corresponding agonist
In short: as §1

hT2R55 = test: hT2R panel inhibition, transient HEK293 G16g44, agonist Cinchonine 150 μM; type: cell-based, human; conditions: compound at 25 μM; receptor activated to EC80 with the corresponding agonist
In short: as §1

hT2R71 = hT2R71 (Homo sapiens (Human), UniProt P59536); test: hT2R panel inhibition, transient HEK293 G16g44, agonist Picric Acid 10 μM; type: cell-based; conditions: HEK293, compound at 25 μM; receptor activated to EC80 with the corresponding agonist; read-out: screening result against bitter receptor 71
In short: as §1

hT2R61 = hT2R61 (Homo sapiens (Human), UniProt P59537); test: hT2R panel inhibition, transient HEK293 G16g44, agonist Aristolochic Acid 25 nM; type: cell-based; conditions: HEK293, compound at 25 μM; receptor activated to EC80 with the corresponding agonist; read-out: screening result against bitter receptor 61
In short: as §1

hT2R7 = hT2R7 (Homo sapiens (Human), UniProt Q9NYW3); test: hT2R panel inhibition, transient HEK293 G16g44, agonist Chloroquine pH6.5 10 mM; type: cell-based; conditions: HEK293, compound at 25 μM; receptor activated to EC80 with the corresponding agonist; read-out: screening result against bitter receptor 7
In short: as §1

hT2R67 = test: hT2R panel inhibition, transient HEK293 G16g44, agonist Andrographolide 5 μM; type: cell-based, human; conditions: compound at 25 μM; receptor activated to EC80 with the corresponding agonist
In short: as §1

hT2R5 = hT2R5 (Homo sapiens (Human), UniProt Q9NYW4); test: hT2R panel inhibition, transient HEK293 G16g44, agonist Picoline 10 mM; type: cell-based; conditions: HEK293, compound at 25 μM; receptor activated to EC80 with the corresponding agonist; read-out: screening result against bitter receptor 5
In short: as §1

[3] = read-out: IC50 on hT2R14 bitter receptor

Sequence of hT2R75 (P59540 whole entry): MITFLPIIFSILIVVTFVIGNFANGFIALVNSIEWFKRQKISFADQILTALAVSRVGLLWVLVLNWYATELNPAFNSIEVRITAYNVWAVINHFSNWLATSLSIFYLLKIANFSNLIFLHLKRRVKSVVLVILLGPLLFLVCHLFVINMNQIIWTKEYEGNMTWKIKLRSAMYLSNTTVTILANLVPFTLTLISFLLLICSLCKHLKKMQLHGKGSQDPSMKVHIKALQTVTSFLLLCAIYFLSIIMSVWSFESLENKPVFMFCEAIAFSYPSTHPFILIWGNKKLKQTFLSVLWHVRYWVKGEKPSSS
Sequence of hT2R7 (Q9NYW3 whole entry): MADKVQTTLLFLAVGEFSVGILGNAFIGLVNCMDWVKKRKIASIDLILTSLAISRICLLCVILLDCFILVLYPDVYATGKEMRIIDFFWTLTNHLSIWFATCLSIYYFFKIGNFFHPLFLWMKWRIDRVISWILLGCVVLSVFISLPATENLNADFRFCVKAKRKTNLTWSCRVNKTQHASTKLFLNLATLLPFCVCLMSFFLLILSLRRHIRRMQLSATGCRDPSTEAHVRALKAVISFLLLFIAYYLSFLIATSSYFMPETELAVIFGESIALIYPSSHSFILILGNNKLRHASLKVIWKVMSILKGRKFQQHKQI
T1 sequence (Q9NYV8 whole entry): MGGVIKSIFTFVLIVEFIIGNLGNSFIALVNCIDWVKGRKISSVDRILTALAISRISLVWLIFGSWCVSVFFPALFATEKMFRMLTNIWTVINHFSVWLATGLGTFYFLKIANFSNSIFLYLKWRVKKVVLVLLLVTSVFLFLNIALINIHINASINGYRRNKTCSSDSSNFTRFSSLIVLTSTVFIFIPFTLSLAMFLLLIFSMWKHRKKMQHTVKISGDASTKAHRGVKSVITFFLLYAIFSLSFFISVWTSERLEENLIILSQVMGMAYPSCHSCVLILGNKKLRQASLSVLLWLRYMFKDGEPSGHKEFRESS
Sequence of hT2R61 (P59537 whole entry): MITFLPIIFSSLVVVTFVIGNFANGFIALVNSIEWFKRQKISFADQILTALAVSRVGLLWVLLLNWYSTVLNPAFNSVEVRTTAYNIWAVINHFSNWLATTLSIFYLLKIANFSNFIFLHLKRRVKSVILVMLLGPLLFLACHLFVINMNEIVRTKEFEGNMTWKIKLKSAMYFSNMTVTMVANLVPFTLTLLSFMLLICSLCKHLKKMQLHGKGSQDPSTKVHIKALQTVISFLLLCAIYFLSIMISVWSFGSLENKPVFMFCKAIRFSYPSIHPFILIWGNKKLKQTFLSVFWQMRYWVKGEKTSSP
Sequence of hT2R16 (Q9NYV7 whole entry): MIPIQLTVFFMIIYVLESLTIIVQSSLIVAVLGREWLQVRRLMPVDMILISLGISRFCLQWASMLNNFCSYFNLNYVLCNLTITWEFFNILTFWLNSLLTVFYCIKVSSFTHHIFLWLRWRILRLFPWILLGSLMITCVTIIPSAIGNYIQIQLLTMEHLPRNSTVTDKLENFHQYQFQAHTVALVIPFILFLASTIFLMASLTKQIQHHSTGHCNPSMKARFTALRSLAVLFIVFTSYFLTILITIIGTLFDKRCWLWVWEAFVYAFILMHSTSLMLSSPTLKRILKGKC
Sequence of hT2R3 (Q9NYW6 whole entry): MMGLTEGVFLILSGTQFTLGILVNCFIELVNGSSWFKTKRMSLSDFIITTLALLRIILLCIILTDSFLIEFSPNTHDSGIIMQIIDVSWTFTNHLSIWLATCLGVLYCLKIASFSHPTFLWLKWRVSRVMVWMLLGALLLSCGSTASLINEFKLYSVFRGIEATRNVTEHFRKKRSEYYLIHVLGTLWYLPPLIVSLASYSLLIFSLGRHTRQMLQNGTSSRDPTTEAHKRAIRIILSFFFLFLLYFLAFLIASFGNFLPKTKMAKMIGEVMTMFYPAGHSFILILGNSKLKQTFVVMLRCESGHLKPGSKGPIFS
Sequence of hT2R4 (Q9NYW5 whole entry): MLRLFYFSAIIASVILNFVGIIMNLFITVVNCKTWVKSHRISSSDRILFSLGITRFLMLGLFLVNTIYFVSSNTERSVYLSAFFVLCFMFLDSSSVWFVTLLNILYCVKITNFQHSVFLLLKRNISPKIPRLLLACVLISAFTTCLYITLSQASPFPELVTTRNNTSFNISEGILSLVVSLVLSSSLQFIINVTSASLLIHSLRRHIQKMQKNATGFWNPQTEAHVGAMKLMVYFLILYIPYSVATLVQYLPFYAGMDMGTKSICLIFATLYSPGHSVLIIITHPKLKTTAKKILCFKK
Sequence of hT2R51 (P59533 whole entry): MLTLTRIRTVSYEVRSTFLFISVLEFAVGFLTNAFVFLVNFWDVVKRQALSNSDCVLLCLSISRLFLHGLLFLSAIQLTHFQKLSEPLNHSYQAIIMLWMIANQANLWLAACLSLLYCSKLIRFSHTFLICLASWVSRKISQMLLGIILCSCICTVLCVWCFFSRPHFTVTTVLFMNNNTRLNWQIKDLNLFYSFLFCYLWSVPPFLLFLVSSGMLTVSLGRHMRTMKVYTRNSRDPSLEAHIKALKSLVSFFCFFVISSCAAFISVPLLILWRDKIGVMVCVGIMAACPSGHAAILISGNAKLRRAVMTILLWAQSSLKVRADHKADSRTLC
Sequence of hT2R10 (Q9NYW0 whole entry): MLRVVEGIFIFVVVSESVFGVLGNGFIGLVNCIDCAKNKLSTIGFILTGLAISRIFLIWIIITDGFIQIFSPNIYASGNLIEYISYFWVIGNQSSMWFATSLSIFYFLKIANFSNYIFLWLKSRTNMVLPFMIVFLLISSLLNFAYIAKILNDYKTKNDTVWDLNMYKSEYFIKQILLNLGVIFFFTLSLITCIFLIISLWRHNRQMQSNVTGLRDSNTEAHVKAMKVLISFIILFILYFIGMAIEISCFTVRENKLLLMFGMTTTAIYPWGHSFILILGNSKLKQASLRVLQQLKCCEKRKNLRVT
Sequence of hT2R5 (Q9NYW4 whole entry): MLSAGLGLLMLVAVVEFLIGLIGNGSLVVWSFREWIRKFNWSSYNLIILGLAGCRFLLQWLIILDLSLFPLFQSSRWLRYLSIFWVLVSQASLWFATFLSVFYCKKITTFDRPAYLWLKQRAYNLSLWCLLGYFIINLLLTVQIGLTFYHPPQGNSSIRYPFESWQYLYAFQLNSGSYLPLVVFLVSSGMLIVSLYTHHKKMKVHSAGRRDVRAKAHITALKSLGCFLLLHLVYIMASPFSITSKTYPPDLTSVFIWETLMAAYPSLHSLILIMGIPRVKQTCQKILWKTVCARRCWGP
Sequence of hT2R64 (P59538 whole entry): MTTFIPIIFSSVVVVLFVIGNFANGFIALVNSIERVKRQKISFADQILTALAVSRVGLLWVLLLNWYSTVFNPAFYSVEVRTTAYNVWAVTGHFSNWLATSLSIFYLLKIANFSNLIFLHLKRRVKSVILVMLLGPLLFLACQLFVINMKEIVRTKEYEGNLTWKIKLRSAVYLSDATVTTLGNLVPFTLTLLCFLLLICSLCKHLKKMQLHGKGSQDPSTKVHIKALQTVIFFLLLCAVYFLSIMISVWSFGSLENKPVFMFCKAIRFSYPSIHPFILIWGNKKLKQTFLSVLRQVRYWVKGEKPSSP
Sequence of hT2R71 (P59536 whole entry): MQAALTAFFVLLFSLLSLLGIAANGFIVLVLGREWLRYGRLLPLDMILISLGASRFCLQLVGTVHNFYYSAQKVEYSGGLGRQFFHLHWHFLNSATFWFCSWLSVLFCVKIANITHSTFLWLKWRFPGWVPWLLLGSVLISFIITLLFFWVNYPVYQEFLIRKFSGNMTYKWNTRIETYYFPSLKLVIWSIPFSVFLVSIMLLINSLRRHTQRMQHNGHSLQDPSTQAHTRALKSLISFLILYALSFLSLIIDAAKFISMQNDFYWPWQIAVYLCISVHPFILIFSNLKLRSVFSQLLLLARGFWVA

SMILES	inhibition at 25 µM (hT2R4) [%]	screening result against bitter receptor 63 (hT2R63)	inhibition at 25 µM (hT2R16) [%]	IC50 (hT2R14 [1]; [3]) [nM]	inhibition at 25 µM (hT2R75) [%]	inhibition at 25 µM (hT2R14 [2]) [%]	screening result against bitter receptor 44 (hT2R44)	inhibition at 25 µM (hT2R10) [%]	inhibition at 25 µM (hT2R64) [%]	inhibition at 25 µM (hT2R3) [%]	screening result against bitter receptor 65 (hT2R65)	inhibition at 25 µM (hT2R51) [%]	screening result against bitter receptor 54 (hT2R54)	screening result against bitter receptor 55 (hT2R55)	inhibition at 25 µM (hT2R71) [%]	inhibition at 25 µM (hT2R61) [%]	IC50 (hT2R14 [1]; Table C, read-out: hT2R14 IC50) [nM]	inhibition at 25 µM (hT2R7) [%]	screening result against bitter receptor 67 (hT2R67)	inhibition at 25 µM (hT2R5) [%]
CCCOc1ccc(CN(Cc2ccco2)S(=O)(=O)c2ccc(C(=O)O)cc2)cc1 [Example 5-8, 4-(N-(4-propoxybenzyl)-N-(furan-2-ylmethyl)sulfamoyl)benzoic acid]	40 to 60	++ (40% to 60% inhibition = ++)	20 to 40	2500	20 to 40	> 80	++ (40% to 60% inhibition = ++)	40 to 60	> 80	20 to 40	++ (40% to 60% inhibition = ++)	40 to 60	+ (20% to 40% inhibition = +)	++++ (80% or greater inhibition = ++++)	40 to 60	60 to 80				
O=C(O)c1ccc(CN(Cc2ccccc2F)S(=O)(=O)c2ccccc2)cc1 [Example 5-103, 4-((N-(2-fluorobenzyl)phenylsulfonamido)methyl)-benzoic acid]	40 to 60	++ (40% to 60% inhibition = ++)	20 to 40		20 to 40	> 80	+++ (60% to 80% inhibition = +++)	20 to 40	> 80	40 to 60	++ (40% to 60% inhibition = ++)	20 to 40	++ (40% to 60% inhibition = ++)	++++ (80% or greater inhibition = ++++)	> 80	> 80	429	20 to 40	+ (20% to 40% inhibition = +)	20 to 40
O=C(O)c1ccc(CN(Cc2ccc(F)cc2)S(=O)(=O)c2ccccc2)cc1 [Example 5-105, 4-((N-(4-fluorobenzyl)phenylsulfonamido)methyl)-benzoic acid]	20 to 40	++ (40% to 60% inhibition = ++)	40 to 60		20 to 40	> 80	++ (40% to 60% inhibition = ++)	20 to 40	> 80	20 to 40	+++ (60% to 80% inhibition = +++)		+ (20% to 40% inhibition = +)	++++ (80% or greater inhibition = ++++)	60 to 80	> 80	935	20 to 40	++ (40% to 60% inhibition = ++)	20 to 40
COc1cccc(CN(Cc2ccco2)S(=O)(=O)c2ccc(C(=O)O)cc2)c1 [Example 5-6, 4-(N-(furan-2-ylmethyl)-N-(3-methoxybenzyl)sulfamoyl)benzoic acid]	20 to 40	++++ (80% or greater inhibition = ++++)	20 to 40	10000	20 to 40	> 80	++ (40% to 60% inhibition = ++)	40 to 60	> 80	20 to 40	+ (20% to 40% inhibition = +)	40 to 60	+ (20% to 40% inhibition = +)	++++ (80% or greater inhibition = ++++)	40 to 60	> 80		20 to 40		
COc1ccc(CN(Cc2ccc(C(=O)O)cc2)S(=O)(=O)c2ccccc2)cc1 [Example 5-102, 4-((N-(4-methoxybenzyl)phenylsulfonamido)methyl) benzoic acid]	40 to 60	+ (20% to 40% inhibition = +)	20 to 40		20 to 40	> 80	+++ (60% to 80% inhibition = +++)	20 to 40	60 to 80	40 to 60	++ (40% to 60% inhibition = ++)	20 to 40	+ (20% to 40% inhibition = +)	++++ (80% or greater inhibition = ++++)	60 to 80	> 80	2220	40 to 60	+ (20% to 40% inhibition = +)	20 to 40
